Results from PMC7904827 (Scientific Reports, 2021).

What was measured:
[1] = 100 µM, same conditions, compared with GK-667; cited from earlier work
[2] = test system: neonatal ventricular cardiomyocytes (NVCMs); test: In vitro cardioprotection bioassay against daunorubicin toxicity (LDH release); assay type: cell-based, rat; conditions: 3 h preincubation, DAU 1.2 µM, LDH release after 48 h
Protocol: NVCMs were isolated in-house from 1- to 3-day-old Wistar rats as described previously. The use of animals and experimental protocols were approved by Charles University, Faculty of Pharmacy Animal Welfare Committee. All experiments were performed in accordance with Directive 2010/63/EU on the Protection of Animals Used for Scientific Purposes and in compliance with Animal Research: Reporting of In Vivo Experiments (ARRIVE) guidelines. Newly isolated cardiomyocytes were left for 40 h to form a monolayer of spontaneously beating cardiomyocytes in seeding medium (DMEM/F12 supplemented with 10% HS, 5% FBS, 4% PYR and 1% P/S), which was then replaced with culture medium (DMEM/F12 supplemented with 5% FBS, 4% PYR and 1% P/S). The medium was replaced again after 24 h for new culture medium.
After 3 h, DAU solution (1.2 µM) was added to the media. After another 3 h, the medium was replaced with new (drug-free) exposure medium, and the cardiomyocytes were then kept until the end of the experiment. In addition to cytoprotective properties, the toxicity of the studied agent was also examined; this experiment was performed as described above with only the DAU addition step omitted.
Forty-five hours after the last medium exchange, a sample of medium was taken from each well to assess lactate dehydrogenase (LDH) activity[27]–[29]. For details, see the Supplementary material.
1.5 LDH activity evaluation
The control wells were treated with lysis buffer (0.1 M potassium phosphate, 1% Triton
X-100, 1 mM DTT, 2 mM EDTA; pH 7.8; 15 min; room temperature) to measure the total
cellular LDH level (sum of the activity in the control medium and the lysate). The activity of
LDH was assayed in Tris-HCl buffer (pH 8.9) containing 35 mM sodium lactate and 5 mM
NAD+. The rate of NAD+ reduction was monitored spectrophotometrically at 340 nm for 2 min.
The slope of the linear region and molar absorption coefficient e = 6.22*10 3 M/cm were used
to calculate the LDH activity, and the data were expressed as a percentage of total L DH activity. […]

[3] = test system: topoisomerase IIβ (TOP2B); conditions: compared with DEX; cited from earlier work

Row | Molecule | decomposition in DMEM [1] | lowest concentration with significant protection against DAU-induced toxicity [2] | potency in the TOP2B inhibitory assay [3]
1 | CC(C)COC(=O)OCN1C(=O)CN(CCN2CC(=O)N(COC(=O)OCC(C)C)C(=O)C2)CC1=O [sobuzoxane] | much slower |  | 
2 | ICRF-193 [reference compound] |  | 0.3 µM | markedly higher potency
